This note sets out measurements from ChEMBL document CHEMBL1649074, “Aurora kinase inhibitors based on the imidazo[1,2-a]pyrazine core: fluorine and deuterium incorporation improve oral absorption and exposure” (J Med Chem, 2011).

The target in one test is Aurora kinase B (Homo sapiens, UniProt Q96GD4). Kind of test: Inhibition of Aurora B.
The target in test [1] is Rho-associated protein kinase 2 (Homo sapiens, UniProt O75116). Kind of test: Inhibition of ROCK2.
The target in test [2] is Serine/threonine-protein kinase PLK3 (Homo sapiens, UniProt Q9H4B4). Kind of test: Inhibition of PLK3.
Serine/threonine-protein kinase PLK3, sequence (Q9H4B4 whole entry): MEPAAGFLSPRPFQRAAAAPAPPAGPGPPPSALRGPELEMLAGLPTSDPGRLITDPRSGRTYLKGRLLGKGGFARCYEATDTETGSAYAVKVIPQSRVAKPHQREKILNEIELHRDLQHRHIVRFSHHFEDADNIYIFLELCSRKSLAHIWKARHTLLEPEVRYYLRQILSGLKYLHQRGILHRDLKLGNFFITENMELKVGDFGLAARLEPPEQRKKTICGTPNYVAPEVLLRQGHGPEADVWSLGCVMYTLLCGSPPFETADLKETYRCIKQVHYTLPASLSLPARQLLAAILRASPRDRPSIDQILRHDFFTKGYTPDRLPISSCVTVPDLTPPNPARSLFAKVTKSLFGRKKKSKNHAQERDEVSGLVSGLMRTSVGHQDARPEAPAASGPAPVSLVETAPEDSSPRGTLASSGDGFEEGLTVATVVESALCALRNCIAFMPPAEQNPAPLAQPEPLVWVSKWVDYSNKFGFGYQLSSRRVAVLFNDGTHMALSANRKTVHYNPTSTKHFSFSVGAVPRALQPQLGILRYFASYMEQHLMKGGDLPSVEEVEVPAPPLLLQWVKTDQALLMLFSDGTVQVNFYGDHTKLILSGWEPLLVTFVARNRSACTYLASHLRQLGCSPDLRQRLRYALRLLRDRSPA
Test [3] addresses T1, Serine/threonine-protein kinase Nek2 (Homo sapiens, UniProt P51955).
T1 sequence (P51955 whole entry): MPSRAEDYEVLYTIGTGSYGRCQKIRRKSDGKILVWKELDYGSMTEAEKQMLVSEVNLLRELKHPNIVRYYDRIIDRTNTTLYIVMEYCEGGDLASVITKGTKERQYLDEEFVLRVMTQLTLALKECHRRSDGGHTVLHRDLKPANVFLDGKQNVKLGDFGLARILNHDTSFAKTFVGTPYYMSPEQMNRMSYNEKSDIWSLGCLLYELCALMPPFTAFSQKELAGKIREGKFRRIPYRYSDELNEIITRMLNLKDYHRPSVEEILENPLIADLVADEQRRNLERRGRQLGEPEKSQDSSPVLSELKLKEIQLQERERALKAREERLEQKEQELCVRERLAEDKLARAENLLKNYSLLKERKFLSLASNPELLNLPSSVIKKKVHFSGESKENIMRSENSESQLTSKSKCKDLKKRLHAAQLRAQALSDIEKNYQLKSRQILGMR
Kind of test: Inhibition of NEK2.

Test [4] addresses Hepatocyte growth factor receptor (Homo sapiens, UniProt P08581). Kind of test: Inhibition of MET.
Test [5] concerns the target Mitogen-activated protein kinase 1 (Homo sapiens, UniProt P28482). Kind of test: Inhibition of ERK2.
For test [6], the target named is Casein kinase I isoform delta (Homo sapiens, UniProt P48730). Kind of test: Inhibition of CSNK1D.
Casein kinase I isoform delta, sequence (P48730 whole entry, canonical isoform): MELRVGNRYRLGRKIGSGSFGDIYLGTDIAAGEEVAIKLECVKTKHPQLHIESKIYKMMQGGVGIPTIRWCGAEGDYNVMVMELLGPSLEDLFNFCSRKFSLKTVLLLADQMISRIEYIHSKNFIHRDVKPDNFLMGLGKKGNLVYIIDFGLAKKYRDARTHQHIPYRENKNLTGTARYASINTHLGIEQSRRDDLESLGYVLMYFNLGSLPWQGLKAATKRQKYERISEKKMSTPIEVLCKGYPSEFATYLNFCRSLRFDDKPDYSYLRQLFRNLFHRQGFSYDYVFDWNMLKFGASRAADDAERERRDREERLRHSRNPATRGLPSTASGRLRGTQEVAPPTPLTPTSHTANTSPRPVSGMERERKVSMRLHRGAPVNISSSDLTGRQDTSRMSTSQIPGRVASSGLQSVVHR
Test [7] deals with T2, Calcium/calmodulin-dependent protein kinase type IV (Homo sapiens, UniProt Q16566).
T2 sequence (Q16566 whole entry): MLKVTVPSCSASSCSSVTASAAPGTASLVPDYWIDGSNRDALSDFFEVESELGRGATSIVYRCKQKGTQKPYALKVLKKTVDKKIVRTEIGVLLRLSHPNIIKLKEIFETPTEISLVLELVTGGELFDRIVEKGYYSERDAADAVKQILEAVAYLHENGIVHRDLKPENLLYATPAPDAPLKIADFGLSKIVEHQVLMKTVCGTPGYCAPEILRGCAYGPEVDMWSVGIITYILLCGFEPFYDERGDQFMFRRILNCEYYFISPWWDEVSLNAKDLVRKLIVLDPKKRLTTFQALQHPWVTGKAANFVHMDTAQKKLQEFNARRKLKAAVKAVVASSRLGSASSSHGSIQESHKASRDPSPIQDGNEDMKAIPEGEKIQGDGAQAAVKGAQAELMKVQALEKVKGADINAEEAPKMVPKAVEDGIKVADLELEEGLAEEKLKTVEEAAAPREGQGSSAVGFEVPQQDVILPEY
Kind of test: Inhibition of CAMK4.

In test [8] the target is RAC-alpha serine/threonine-protein kinase (Homo sapiens, UniProt P31749). Kind of test: Inhibition of AKT1.
RAC-alpha serine/threonine-protein kinase, sequence (P31749 whole entry): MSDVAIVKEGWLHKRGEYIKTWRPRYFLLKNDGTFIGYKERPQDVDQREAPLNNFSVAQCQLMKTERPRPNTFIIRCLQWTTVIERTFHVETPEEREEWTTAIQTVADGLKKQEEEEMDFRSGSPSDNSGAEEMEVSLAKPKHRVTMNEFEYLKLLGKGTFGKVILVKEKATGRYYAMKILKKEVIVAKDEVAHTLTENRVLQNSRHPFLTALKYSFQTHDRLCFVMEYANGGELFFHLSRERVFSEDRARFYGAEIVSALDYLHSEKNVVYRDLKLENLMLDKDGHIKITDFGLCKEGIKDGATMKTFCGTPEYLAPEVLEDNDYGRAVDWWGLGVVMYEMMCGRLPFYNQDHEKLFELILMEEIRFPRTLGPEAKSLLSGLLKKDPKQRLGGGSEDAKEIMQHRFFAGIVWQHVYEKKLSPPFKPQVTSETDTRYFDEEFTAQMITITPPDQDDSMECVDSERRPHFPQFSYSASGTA
Test [9] concerns the target Vascular endothelial growth factor receptor 2 (Homo sapiens, UniProt P35968). Kind of test: Inhibition of KDR.
The target in test [10] is T3, Receptor-type tyrosine-protein kinase FLT3 (Homo sapiens, UniProt P36888).
T3 sequence (P36888 whole entry): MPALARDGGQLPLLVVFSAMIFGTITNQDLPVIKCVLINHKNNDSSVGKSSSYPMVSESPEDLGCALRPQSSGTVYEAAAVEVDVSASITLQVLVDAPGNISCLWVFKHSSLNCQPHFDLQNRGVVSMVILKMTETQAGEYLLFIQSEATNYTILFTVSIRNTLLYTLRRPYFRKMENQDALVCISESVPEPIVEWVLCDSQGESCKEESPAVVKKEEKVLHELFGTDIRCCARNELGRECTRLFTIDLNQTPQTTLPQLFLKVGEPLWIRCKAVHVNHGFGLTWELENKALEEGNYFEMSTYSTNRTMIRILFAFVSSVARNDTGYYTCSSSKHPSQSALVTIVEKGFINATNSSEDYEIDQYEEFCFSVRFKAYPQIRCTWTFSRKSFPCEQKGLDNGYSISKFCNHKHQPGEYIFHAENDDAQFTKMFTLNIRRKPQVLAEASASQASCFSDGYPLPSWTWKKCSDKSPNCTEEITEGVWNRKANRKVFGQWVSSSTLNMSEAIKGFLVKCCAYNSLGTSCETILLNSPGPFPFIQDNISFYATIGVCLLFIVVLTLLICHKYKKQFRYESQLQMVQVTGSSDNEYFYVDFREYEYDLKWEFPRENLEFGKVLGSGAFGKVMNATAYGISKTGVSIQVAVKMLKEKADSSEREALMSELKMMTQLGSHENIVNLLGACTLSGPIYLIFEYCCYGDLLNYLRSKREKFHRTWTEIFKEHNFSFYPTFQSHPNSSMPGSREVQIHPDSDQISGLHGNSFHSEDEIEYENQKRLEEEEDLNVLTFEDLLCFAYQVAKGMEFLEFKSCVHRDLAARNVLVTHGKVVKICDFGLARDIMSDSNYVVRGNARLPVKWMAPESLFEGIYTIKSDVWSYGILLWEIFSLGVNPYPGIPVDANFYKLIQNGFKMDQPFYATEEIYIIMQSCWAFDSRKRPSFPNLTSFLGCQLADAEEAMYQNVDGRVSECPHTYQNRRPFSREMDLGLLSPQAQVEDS
Kind of test: Inhibition of FLT3.

The next test deals with T4, Aurora kinase A (Homo sapiens, UniProt O14965).
T4 sequence (O14965 whole entry): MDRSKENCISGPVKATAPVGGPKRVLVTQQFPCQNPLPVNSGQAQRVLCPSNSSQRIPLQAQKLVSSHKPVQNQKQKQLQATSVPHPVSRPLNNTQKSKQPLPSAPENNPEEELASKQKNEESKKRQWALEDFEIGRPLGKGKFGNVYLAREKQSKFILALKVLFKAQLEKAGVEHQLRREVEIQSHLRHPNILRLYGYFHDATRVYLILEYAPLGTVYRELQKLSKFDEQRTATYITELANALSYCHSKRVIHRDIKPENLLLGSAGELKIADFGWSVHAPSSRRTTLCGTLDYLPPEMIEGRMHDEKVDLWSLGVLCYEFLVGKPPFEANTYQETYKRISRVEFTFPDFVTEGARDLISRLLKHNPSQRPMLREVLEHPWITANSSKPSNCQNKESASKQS
Kind of test: Inhibition of Aurora A.

Aurora kinase B, sequence (Q96GD4 whole entry): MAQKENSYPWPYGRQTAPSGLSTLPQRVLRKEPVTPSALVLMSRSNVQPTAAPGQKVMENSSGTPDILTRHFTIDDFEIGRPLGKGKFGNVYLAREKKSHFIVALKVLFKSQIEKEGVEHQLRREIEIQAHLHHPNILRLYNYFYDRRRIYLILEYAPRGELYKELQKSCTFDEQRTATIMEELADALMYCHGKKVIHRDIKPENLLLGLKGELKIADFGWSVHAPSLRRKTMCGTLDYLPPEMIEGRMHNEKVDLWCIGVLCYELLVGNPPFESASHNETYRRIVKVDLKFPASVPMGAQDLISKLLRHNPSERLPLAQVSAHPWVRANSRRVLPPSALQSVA
Mitogen-activated protein kinase 1, sequence (P28482 whole entry, canonical isoform): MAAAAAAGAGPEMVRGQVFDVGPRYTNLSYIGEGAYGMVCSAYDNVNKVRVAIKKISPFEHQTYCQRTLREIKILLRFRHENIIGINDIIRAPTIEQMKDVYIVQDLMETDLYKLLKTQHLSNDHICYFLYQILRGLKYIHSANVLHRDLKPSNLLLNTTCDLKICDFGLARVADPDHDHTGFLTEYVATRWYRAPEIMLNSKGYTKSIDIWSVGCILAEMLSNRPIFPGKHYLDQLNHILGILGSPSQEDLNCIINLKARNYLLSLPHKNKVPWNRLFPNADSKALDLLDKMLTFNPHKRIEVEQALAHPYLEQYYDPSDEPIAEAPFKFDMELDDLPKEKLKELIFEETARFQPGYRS
Vascular endothelial growth factor receptor 2, sequence (P35968 whole entry): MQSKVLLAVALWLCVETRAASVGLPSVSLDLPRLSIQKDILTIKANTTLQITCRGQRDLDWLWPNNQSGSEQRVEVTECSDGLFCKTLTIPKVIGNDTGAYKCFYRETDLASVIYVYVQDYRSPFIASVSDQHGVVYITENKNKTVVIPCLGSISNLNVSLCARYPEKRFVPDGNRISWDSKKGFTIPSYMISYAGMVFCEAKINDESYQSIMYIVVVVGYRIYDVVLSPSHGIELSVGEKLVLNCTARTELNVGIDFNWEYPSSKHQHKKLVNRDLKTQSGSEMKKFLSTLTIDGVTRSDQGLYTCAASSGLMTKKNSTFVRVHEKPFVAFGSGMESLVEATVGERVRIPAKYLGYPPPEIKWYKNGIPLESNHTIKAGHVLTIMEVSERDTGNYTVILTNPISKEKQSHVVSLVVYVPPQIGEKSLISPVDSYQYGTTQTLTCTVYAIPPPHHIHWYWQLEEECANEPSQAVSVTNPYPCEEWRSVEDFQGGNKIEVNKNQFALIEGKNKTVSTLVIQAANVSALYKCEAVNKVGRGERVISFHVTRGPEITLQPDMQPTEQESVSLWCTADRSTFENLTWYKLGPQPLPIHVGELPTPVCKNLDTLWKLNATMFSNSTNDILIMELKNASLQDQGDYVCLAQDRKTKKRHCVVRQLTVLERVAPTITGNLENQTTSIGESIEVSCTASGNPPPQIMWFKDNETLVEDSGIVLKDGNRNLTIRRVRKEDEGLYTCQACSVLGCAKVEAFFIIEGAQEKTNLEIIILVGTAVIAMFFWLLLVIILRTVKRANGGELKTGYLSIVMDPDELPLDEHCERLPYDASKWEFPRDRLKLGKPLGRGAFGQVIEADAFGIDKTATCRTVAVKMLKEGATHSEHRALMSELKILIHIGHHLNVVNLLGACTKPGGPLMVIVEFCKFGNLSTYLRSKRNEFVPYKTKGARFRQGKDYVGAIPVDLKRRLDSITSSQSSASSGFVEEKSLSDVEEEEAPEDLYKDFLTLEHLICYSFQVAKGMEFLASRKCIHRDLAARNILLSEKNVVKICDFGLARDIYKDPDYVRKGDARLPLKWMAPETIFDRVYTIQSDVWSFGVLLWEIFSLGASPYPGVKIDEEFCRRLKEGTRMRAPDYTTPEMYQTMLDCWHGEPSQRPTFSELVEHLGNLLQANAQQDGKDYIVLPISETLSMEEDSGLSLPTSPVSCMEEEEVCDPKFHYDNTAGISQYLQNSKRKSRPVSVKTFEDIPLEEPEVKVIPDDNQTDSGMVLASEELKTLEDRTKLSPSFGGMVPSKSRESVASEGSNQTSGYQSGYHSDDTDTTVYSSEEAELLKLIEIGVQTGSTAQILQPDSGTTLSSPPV
Rho-associated protein kinase 2, sequence (O75116 whole entry): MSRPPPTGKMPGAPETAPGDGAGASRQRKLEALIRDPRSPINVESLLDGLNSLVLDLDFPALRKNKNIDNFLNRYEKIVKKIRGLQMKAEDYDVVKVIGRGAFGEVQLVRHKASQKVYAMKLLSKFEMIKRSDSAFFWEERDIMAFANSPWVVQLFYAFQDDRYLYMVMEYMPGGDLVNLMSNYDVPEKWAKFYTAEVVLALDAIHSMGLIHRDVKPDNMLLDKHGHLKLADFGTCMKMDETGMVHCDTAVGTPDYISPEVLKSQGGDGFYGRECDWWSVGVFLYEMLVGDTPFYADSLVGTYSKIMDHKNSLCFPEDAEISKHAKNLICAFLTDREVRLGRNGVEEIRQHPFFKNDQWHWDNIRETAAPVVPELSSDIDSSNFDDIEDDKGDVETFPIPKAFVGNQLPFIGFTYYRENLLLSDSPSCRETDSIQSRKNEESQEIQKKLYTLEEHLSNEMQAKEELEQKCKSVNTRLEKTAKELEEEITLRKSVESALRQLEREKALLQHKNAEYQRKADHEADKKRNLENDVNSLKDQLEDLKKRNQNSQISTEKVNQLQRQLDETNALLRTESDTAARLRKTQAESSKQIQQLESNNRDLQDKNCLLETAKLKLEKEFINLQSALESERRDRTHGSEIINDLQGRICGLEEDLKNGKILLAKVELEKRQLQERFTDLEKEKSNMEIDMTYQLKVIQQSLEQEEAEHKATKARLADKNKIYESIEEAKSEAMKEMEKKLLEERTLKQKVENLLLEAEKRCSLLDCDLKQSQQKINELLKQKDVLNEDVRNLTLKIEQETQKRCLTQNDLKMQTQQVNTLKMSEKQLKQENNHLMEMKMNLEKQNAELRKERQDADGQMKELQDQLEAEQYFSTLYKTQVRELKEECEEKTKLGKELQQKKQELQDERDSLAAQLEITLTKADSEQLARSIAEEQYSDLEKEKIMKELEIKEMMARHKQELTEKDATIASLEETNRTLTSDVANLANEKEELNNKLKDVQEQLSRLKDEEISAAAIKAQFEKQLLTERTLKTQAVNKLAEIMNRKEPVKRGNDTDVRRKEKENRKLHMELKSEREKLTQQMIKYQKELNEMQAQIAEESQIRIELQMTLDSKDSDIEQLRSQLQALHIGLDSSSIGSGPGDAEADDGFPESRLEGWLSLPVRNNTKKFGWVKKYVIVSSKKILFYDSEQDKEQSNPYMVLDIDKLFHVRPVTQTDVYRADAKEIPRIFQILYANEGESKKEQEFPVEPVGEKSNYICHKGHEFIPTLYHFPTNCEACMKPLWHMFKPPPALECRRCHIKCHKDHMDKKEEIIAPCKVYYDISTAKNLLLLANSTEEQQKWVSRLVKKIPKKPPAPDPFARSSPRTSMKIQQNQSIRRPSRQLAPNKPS

A word on the IC50: it is the concentration at which inhibition is half-maximal. `Cl.[2H]C([2H])(c1cc(Nc2nc(C)cn3c(-c4cn[nH]c4)cnc23)sn1)N1CCC(F)(F)C1`: the IC50 against Aurora kinase B is no more than 13 nM; in test [1], greater than 100 nM; in test [2], greater than 100 nM; in [3], greater than 100 nM; in test [4], greater than 100 nM; in test [5], greater than 100 nM. The IC50 in test [6] is greater than 100 nM; in [7], greater than 100 nM; in test [8] it was greater than 100 nM; in test [9], 340 nM; in test [10], 46 nM; at Aurora kinase A, no more than 4 nM.
In the case of `Cc1cn2c(-c3cn[nH]c3)cnc2c(Nc2cc(CN3CCC(F)(F)C3)ns2)n1.Cl`, the 50% inhibitory concentration (IC50) on Aurora kinase B is no more than 13 nM; in test [1], greater than 100 nM; in test [2], greater than 100 nM; in [3] it was greater than 100 nM; in [4], greater than 100 nM; in [5], greater than 100 nM. Also, the IC50 was greater than 100 nM in test [6]; greater than 100 nM in [7]; greater than 100 nM in [8]; 550 nM in [9]; 76 nM in test [10]; no more than 4 nM at Aurora kinase A.
Consider `CCN(Cc1cc(Nc2nc(C)cn3c(-c4cn[nH]c4)cnc23)sn1)C(C)(C)CO`, for which the IC50 against Aurora kinase B is no more than 13 nM; in test [1] it was greater than 100 nM; in test [2], greater than 100 nM; in [3], greater than 100 nM; in test [4], greater than 100 nM; in test [5] it was greater than 100 nM. For the same compound, the 50% inhibitory concentration (IC50) in test [6] was greater than 100 nM; in test [7], greater than 100 nM; in [8], greater than 100 nM; in [9], less than 1 nM; in test [10] it was 5 nM; on Aurora kinase A, no more than 4 nM.
